Publication PMC8279416, “Structural Fine-Tuning of Desmuramylpeptide NOD2 Agonists Defines Their In Vivo Adjuvant Activity” (Journal of Medicinal Chemistry, 2021)

Tests used:
Format in all cases: cell-based
NOD1 = target: T1, NOD1 (Homo sapiens, UniProt Q9Y239); assay: HEK-Blue NOD1 cell line reporter assay (selectivity); settings: HEK-Blue NOD1 cells, 2 μM, 18 h
T1 construct: host or cells: HEK-Blue NOD1 cells (HEK293-derived)
T1 sequence (Q9Y239 1-953): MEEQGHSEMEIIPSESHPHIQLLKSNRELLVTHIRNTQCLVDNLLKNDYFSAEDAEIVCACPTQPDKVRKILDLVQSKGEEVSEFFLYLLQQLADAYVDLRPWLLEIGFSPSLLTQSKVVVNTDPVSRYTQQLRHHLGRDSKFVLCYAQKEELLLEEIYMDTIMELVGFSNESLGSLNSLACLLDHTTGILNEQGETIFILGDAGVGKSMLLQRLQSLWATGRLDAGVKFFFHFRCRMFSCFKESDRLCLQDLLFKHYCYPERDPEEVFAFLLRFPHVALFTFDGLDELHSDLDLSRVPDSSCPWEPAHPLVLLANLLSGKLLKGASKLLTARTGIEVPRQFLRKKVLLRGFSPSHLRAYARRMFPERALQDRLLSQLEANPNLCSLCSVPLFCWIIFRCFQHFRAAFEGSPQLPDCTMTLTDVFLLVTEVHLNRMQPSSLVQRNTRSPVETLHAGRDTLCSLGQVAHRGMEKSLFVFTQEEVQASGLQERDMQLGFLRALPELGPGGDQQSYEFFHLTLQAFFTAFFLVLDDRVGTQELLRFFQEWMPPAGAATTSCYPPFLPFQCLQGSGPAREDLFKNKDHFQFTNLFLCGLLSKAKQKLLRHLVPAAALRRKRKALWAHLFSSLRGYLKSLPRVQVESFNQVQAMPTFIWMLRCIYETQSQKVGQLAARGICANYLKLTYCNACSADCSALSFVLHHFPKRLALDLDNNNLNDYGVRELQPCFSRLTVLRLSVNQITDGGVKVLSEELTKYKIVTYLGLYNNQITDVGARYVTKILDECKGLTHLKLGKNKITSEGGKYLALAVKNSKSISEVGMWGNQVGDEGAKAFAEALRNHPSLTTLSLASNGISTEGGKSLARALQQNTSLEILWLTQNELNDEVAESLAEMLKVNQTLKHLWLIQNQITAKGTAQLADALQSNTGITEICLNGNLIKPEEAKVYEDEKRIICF
Procedure: As NOD2 and NOD1 agonists share certain structural characteristics, we wanted to determine whether these compounds selectively target NOD2. Selectivity against NOD1 of MDP and all of these synthesized desmuramylpeptides was analyzed in an analogous assay with the HEK-Blue NOD1 cell line.
(§1) HEK-Blue NOD2 and NOD1 cell line reporter assays are derived from HEK293 cells by cotransfection of the hNOD2 or hNOD1 genes, respectively, and an NF-κB-inducible secreted embryonic alkaline phosphatase (SEAP) reporter gene. Following activation of NOD2 or NOD1, the resulting NF-κB induces production of SEAP, the levels of which can be quantified colorimetrically. […] After 18 h of incubation (37 °C, 5% CO2), secreted embryonic alkaline phosphatase (SEAP) activity was determined spectrophotometrically as absorbance at 630 nm (BioTek Synergy microplate reader; Winooski, VT, U.S.A.). EC50 values were calculated using Prism software (version 9; GraphPad Software, CA, U.S.A.). For determination of specificity, HEK-Blue NOD2 cells (2.5 × 10^5 cells/mL) were first pretreated for 1 h with a 10 μM NOD2 antagonist, before the addition of the compounds (2 μM), with incubation for 18 h. SEAP activity in the supernatants was determined as above. The experiments were run in duplicate and repeated as at least two independent biological replicates.
Supporting figure S2. NOD1 agonistic activities of desmuramylpeptides. […]

NOD2 [1] = target: T2, NOD2 (Homo sapiens, UniProt Q9HC29); assay: Specificity: NOD2 antagonist pretreatment of HEK-Blue NOD2 cells; settings: 10 μM NOD2 antagonist 1 h, then 2 μM compound 18 h
T2 construct: host or cells: HEK-Blue NOD2 cells (HEK293-derived)
Procedure: Furthermore, the specificities were determined by pretreating HEK-Blue NOD2 cells with a previously reported NOD2 antagonist[77] prior to stimulation with MDP (2 μM) or the desmuramylpeptides (2 μM). The resulting NF-κB-induced SEAP activities were compared to those of the controls without the NOD2 antagonist pretreatment.
as §1
Supporting figure S2. […]

NOD2 [2] = target: T2, NOD2; assay: HEK-Blue NOD2 cell line reporter assay (NF-κB-inducible SEAP); settings: HEK-Blue NOD2 cells, 18 h, mean ± SEM

T2 sequence (Q9HC29 whole entry): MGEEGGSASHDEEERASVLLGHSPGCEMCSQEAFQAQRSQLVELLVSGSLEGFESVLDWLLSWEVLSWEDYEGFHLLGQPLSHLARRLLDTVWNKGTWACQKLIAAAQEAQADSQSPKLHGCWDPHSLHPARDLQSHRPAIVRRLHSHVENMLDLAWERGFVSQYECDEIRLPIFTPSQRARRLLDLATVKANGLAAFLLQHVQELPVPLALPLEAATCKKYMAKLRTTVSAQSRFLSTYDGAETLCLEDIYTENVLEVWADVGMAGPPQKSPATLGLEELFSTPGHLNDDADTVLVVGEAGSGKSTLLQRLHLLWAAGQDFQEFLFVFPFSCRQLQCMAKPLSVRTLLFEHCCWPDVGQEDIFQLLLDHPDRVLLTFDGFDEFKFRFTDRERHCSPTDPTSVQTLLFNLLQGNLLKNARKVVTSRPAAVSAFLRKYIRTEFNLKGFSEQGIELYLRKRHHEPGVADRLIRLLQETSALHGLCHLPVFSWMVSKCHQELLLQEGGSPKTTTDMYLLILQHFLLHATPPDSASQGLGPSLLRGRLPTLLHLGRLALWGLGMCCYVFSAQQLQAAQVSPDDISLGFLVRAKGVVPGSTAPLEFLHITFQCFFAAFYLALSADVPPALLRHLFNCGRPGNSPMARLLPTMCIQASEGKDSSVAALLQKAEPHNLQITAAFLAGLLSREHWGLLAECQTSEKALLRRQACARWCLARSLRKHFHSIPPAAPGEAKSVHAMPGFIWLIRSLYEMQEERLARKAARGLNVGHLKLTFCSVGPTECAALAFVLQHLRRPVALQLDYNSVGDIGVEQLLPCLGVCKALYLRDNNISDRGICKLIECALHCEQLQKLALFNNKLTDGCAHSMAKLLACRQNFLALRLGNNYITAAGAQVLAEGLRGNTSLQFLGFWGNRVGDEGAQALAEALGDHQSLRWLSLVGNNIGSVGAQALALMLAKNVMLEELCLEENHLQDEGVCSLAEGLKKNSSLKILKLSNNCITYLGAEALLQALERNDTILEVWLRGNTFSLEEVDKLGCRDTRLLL

CCOC(=O)CC[C@@H](NC(=O)[C@@H](NC(=O)CNC(=O)/C=C/c1ccc(O)c(O)c1)C(C)C)C(=O)OCC [Compound 21, Diethyl ((E)-3-(3,4-Dihydroxyphenyl)acryloyl)glycyl-L-valyl-D-glutamate]
NOD1 agonistic activity (NOD1): showed no activity in the NOD1 assay | NF-κB transcriptional activity after NOD2 antagonist pretreatment (NOD2 [1]): reduced NOD2 activation | NOD2 activity at 2 μM (fold increase) (NOD2 [2]; 2 μM, NF-κB transcriptional (SEAP) activity relative to 0.1% DMSO): 2.28 ± 0.07 fold increase | EC50 (NOD2 [2]; 7 or 8 concentrations 1 nM to 20 μM): 1730 ± 101 nM
